Assay results reported in patent publication US20040191115A1 (priority 2003, published 2004).
Several values for one entry are separate records, joined by “and”; a condition that tells them apart may be missing. Identical values can stand only once. Like-named read-outs stand apart in the source and are kept apart here.

Tested on: bacillus atrophaeus spores
Settings: 2.59 percent H2O2, slow speed, without cartons; for average count of colony forming units for the time period / log of average count for the time period: mean of samples
Method: Studies were conducted to determine the microbial eradication on mandrels 34 that were subjected to vaporized sterilant introduced at the heaters 40. […] The efficacy of the mandrel sterilization was studied for both the mandrel caps 35 and the mandrel side tubes 37 (see FIG. 3).
Each of the studies was further carried out using a testing media of bacillus atrophaeus spores for inoculating the mandrels. The mandrels were inoculated by spraying, using an aerating spray bottle having a solution with a concentration of about 7 log bacillus spores. The mandrels were then allowed to air dry. Controls were swabbed using cotton swabs to assure that the mandrels were properly inoculated. Following the machine operating period of the test, the mandrels were swabbed and the bacillus spores transferred to an agar media for incubation of the spores (at 32° C. for 48 hours) and subsequent recovery.
The data was collected by taking swab samples at the mandrel cap 35 (represented by C in the Table) and on the mandrel side tubes 37 (represented by T in the Table).

[1] = time 0 min, swab site C (mandrel cap)
[2] = time 0 min, swab site T (mandrel side tubes)
[3] = time 15 min, swab site C (mandrel cap)
[4] = time 15 min, swab site T (mandrel side tubes)
[5] = time 30 min, swab site C (mandrel cap)
[6] = time 30 min, swab site T (mandrel side tubes)
[7] = time 45 min, swab site C (mandrel cap)
[8] = time 45 min, swab site T (mandrel side tubes)
[9] = time 60 min, swab site C (mandrel cap)
[10] = time 60 min, swab site T (mandrel side tubes)

Q: Which “average count of colony forming units for the time period” value (“average count of colony forming units” for short) (time 0 min, cap) does the source give for `OO` [hydrogen peroxide] here?
A: Its value is 4.82E+05 CFU/mandrel.

Q: What about the “log of average count for the time period” value (time 0 min, cap) of the same compound?
A: Its value is 5.68 log.

Q: What about the “average count of colony forming units” value (time 0 min, side tubes) of the same compound?
A: The value was 6.67E+05 CFU/mandrel.

Q: And the “log of average count for the time period” value (time 0 min, side tubes)?
A: The value was 5.82 log.

Q: And the “Average CFU/mL” value [1]?
A: Its value is 1.19E+05 CFU/mL and 1.23E+05 CFU/mL.

Q: What about the “Average CFU/mandrel” value [1] of the same compound?
A: Its value is 4.74E+05 CFU/mandrel and 4.90E+05 CFU/mandrel.

Q: What about the “Log (of Average CFU/mandrel)” value [1] of the same compound?
A: Its value is 5.68 Log and 5.69 Log.

Q: And the “Result 1 CFU/mL” value [1]?
A: Its value is 1.24E+05 CFU/mL and 1.19E+05 CFU/mL.

Q: And the “Result #2 CFU/mL” value [1]?
A: Its value is 1.13E+05 CFU/mL and 1.26E+05 CFU/mL.

Q: What about the “Log (of Average CFU/mandrel)” value [2] of the same compound?
A: The value was 5.95 Log and 5.65 Log.

Q: And the “Result #2 CFU/mL” value [2]?
A: Its value is 2.09E+05 CFU/mL and 1.17E+05 CFU/mL.

Q: What about the “average count of colony forming units” value (time 15 min, cap) of the same compound?
A: Its value is 3.47E+05 CFU/mandrel.

Q: And the “log of average count for the time period” value (time 15 min, cap)?
A: Its value is 5.54 log.

Q: What about the “average count of colony forming units” value (time 15 min, side tubes) of the same compound?
A: Its value is 4.02E+05 CFU/mandrel.

Q: And the “log of average count for the time period” value (time 15 min, side tubes)?
A: The value was 5.60 log.

Q: And the “Average CFU/mandrel” value [3]?
A: Its value is 2.62E+05 CFU/mandrel and 4.32E+05 CFU/mandrel.

Q: What about the “Log (of Average CFU/mandrel)” value [3] of the same compound?
A: The value was 5.42 Log and 5.64 Log.

Q: And the “Average CFU/mL” value [4]?
A: Its value is 1.01E+05 CFU/mL and 1.00E+05 CFU/mL.

Q: And the “Average CFU/mandrel” value [4]?
A: Its value is 4.04E+05 CFU/mandrel and 4.00E+05 CFU/mandrel.

Q: And the “Log (of Average CFU/mandrel)” value [4]?
A: Its value is 5.61 Log and 5.60 Log.

Q: What about the “Result 1 CFU/mL” value [4] of the same compound?
A: The value was 1.03E+05 CFU/mL and 1.06E+05 CFU/mL.

Q: And the “Result #2 CFU/mL” value [4]?
A: Its value is 9.90E+04 CFU/mL and 9.40E+04 CFU/mL.

Q: What about the “Log Red. (Avg)” value (time 15 min relative to time zero, cap) of the same compound?
A: Its value is 0.14 Log.

Q: And the “Log Red. (Avg)” value (time 15 min relative to time zero, side tubes)?
A: Its value is 0.22 Log.

Q: And the “average count of colony forming units” value (time 30 min, cap)?
A: Its value is 3.82E+05 CFU/mandrel.

Q: What about the “log of average count for the time period” value (time 30 min, cap) of the same compound?
A: Its value is 5.58 log.

Q: And the “average count of colony forming units” value (time 30 min, side tubes)?
A: Its value is 4.34E+05 CFU/mandrel.

Q: What about the “log of average count for the time period” value (time 30 min, side tubes) of the same compound?
A: The value was 5.64 log.

Q: What about the “Average CFU/mandrel” value [5] of the same compound?
A: The value was 2.66E+05 CFU/mandrel and 4.98E+05 CFU/mandrel.

Q: And the “Log (of Average CFU/mandrel)” value [5]?
A: Its value is 5.42 Log and 5.70 Log.

Q: What about the “Average CFU/mandrel” value [6] of the same compound?
A: Its value is 4.74E+05 CFU/mandrel and 3.94E+05 CFU/mandrel.

Q: What about the “Log (of Average CFU/mandrel)” value [6] of the same compound?
A: Its value is 5.68 Log and 5.60 Log.

Q: And the “Result #2 CFU/mL” value [6]?
A: The value was 1.15E+05 CFU/mL and 1.08E+05 CFU/mL.

Q: And the “Log Red. (Avg)” value (time 30 min relative to time zero, cap)?
A: Its value is 0.10 Log.

Q: What about the “Log Red. (Avg)” value (time 30 min relative to time zero, side tubes) of the same compound?
A: The value was 0.19 Log.

Q: What about the “average count of colony forming units” value (time 45 min, cap) of the same compound?
A: Its value is 6.31E+05 CFU/mandrel.

Q: And the “log of average count for the time period” value (time 45 min, cap)?
A: Its value is 5.80 log.

Q: What about the “average count of colony forming units” value (time 45 min, side tubes) of the same compound?
A: The value was 8.04E+05 CFU/mandrel.

Q: And the “log of average count for the time period” value (time 45 min, side tubes)?
A: The value was 5.91 log.

Q: And the “Average CFU/mL” value [7]?
A: Its value is 1.43E+05 CFU/mL and 1.73E+05 CFU/mL.

Q: And the “Average CFU/mandrel” value [7]?
A: Its value is 5.72E+05 CFU/mandrel and 6.90E+05 CFU/mandrel.

Q: What about the “Log (of Average CFU/mandrel)” value [7] of the same compound?
A: The value was 5.76 Log and 5.84 Log.

Q: What about the “Result 1 CFU/mL” value [7] of the same compound?
A: The value was 1.51E+05 CFU/mL and 1.64E+05 CFU/mL.

Q: And the “Result #2 CFU/mL” value [7]?
A: The value was 1.35E+05 CFU/mL and 1.81E+05 CFU/mL.

Q: What about the “Average CFU/mL” value [8] of the same compound?
A: Its value is 1.51E+05 CFU/mL and 2.52E+05 CFU/mL.

Q: And the “Log (of Average CFU/mandrel)” value [8]?
A: The value was 5.78 Log and 6.00 Log.

Q: And the “Result 1 CFU/mL” value [8]?
A: The value was 1.67E+05 CFU/mL and 2.49E+05 CFU/mL.

Q: What about the “Result #2 CFU/mL” value [8] of the same compound?
A: The value was 1.34E+05 CFU/mL and 2.54E+05 CFU/mL.

Q: And the “Log Red. (Avg)” value (time 45 min relative to time zero, cap)?
A: The value was −0.12 Log.

Q: What about the “Log Red. (Avg)” value (time 45 min relative to time zero, side tubes) of the same compound?
A: The value was −0.08 Log.

Q: And the “average count of colony forming units” value (time 60 min, cap)?
A: Its value is 3.24E+05 CFU/mandrel.

Q: And the “log of average count for the time period” value (time 60 min, cap)?
A: Its value is 5.51 log.

Q: What about the “average count of colony forming units” value (time 60 min, side tubes) of the same compound?
A: The value was 6.01E+05 CFU/mandrel.

Q: What about the “log of average count for the time period” value (time 60 min, side tubes) of the same compound?
A: The value was 5.78 log.

Q: What about the “Average CFU/mL” value [9] of the same compound?
A: The value was 7.35E+04 CFU/mL and 8.85E+04 CFU/mL.

Q: What about the “Average CFU/mandrel” value [9] of the same compound?
A: Its value is 2.94E+05 CFU/mandrel and 3.54E+05 CFU/mandrel.

Q: And the “Log (of Average CFU/mandrel)” value [9]?
A: The value was 5.47 Log and 5.55 Log.

Q: And the “Result 1 CFU/mL” value [9]?
A: Its value is 6.30E+04 CFU/mL and 8.50E+04 CFU/mL.

Q: And the “Result #2 CFU/mL” value [9]?
A: The value was 8.40E+04 CFU/mL and 9.20E+04 CFU/mL.

Q: And the “Average CFU/mL” value [10]?
A: Its value is 1.87E+05 CFU/mL and 1.14E+05 CFU/mL.

Q: What about the “Average CFU/mandrel” value [10] of the same compound?
A: The value was 7.46E+05 CFU/mandrel and 4.56E+05 CFU/mandrel.

Q: And the “Log (of Average CFU/mandrel)” value [10]?
A: Its value is 5.87 Log and 5.66 Log.

Q: What about the “Result 1 CFU/mL” value [10] of the same compound?
A: Its value is 2.10E+05 CFU/mL and 1.20E+05 CFU/mL.

Q: What about the “Result #2 CFU/mL” value [10] of the same compound?
A: The value was 1.63E+05 CFU/mL and 1.08E+05 CFU/mL.

Q: And the “Log Red. (Avg)” value (time 60 min relative to time zero, cap)?
A: The value was 0.17 Log.

Q: And the “Log Red. (Avg)” value (time 60 min relative to time zero, side tubes)?
A: The value was 0.05 Log.
